This is an account of results in US20240246941A1, “SUBSTITUTED 4-(3-AMINOPROP-1-YL)AMINOQUINOLINE ANALOGS AS MODULATORS OF MELANOMA-ASSOCIATED ANTIGEN 11 UBIQUITIN LIGASE” (ST. JUDE CHILDREN'S RESEARCH HOSPITAL, INC., priority 2020, published 2024).

Read-outs that look alike come from different tables or passages of the source. Where only a bound is given, the exact number is not on record here.

One test concerns the target MAGE-A11:PCF11 (Homo sapiens (Human), UniProt P43364). The test is described as follows: TR-FRET single point screening at 15 μM. Format: binding. The arrangement: unit not given here. Particulars: single point TR-FRET screening at 15 μM against MAGE-A11:PCF11. The essentials:
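Single-point screen at 15 μM (0.25% DMSO) measuring disruption of GST-MAGEA11 (5 nM) binding to FAM-PCF11_4 peptide (200 nM) detected by Tb-anti-GST (5 nM). Buffer 50 mM Tris pH 7.5, 20 mM MgCl2, 0.1 mg/ml BSA, 1 mM DTT; 90 min at ~25 °C; 520/490 nm ratio converted to % inhibition versus controls.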

Test [1] concerns the target interaction between GST-MAGEA11 MHD and FAM-PCF11_4 peptide (MAGE-A11:PCF11) (Homo sapiens (Human), UniProt P43364). In words: TR-FRET dose response competition assay for disruption of MAGE-A11:PCF11 binding. The essentials: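 Competition TR-FRET at room temperature in 50 mM Tris pH 7.5, 20 mM MgCl2, 0.1 mg/ml BSA, 1 mM DTT: final 5 nM GST-MAGEA11 MHD, 5 nM Tb-anti-GST, 200 nM FAM-PCF11_4, 90 min. Ratio 520/490 nm converted to % inhibition; IC50 from sigmoidal fit.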

Setting [2] is: Table 8, representative compounds, read-out: TR-FRET IC50.
Where [3] appears, read: Dose response TR-FRET screening of nine scaffold groups against MAGE-A11:PCF11, read-out: consensus IC50.
The mark [4] stands for this setting: Table 5, dose response TR-FRET screening of 59 quinoline compounds against MAGE-A11:PCF11, read-out: TR-FRET IC50.

Chain of interaction between GST-MAGEA11 MHD and FAM-PCF11_4 peptide (MAGE-A11:PCF11) (P43364 218-429): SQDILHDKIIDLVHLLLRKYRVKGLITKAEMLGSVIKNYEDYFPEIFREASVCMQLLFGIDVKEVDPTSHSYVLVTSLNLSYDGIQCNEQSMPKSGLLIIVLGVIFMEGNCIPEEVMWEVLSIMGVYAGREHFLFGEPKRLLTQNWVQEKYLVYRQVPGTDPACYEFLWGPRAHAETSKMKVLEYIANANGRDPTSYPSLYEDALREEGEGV
Chain of MAGE-A11:PCF11 (P43364 218-429): as above

For `CCCN(CCCCNc1ccnc2cc(Cl)ccc12)Cc1cc(Br)ccc1O` [SJ000311196], the TR-FRET signal at MAGE-A11:PCF11 was 5.724. For the same compound, the IC50 in test [1] (setting [2]) is 69.9 µM.

For `NC1=C(Nc2ccc(Cl)cc2)C(=O)c2ccccc2C1=O` [SJ000562630-1], the IC50 in test [1] (setting [3]) was 53.8 µM.

In the case of `Cc1cc(C)cc(NC2=C(N)C(=O)c3ccccc3C2=O)c1` [SJ000562641-1], the 50% inhibitory concentration (IC50) in test [1] (setting [3]) is 55 µM.

On to `COc1cc(NCc2ccc3nc(N)nc(N)c3c2C)cc(OC)c1OC` [SJ000574313-7], for which, in test [1] (setting [3]), the IC50 stood at 9.46 µM.

On to `CCCN(CCCNc1ccnc2cc(C(F)(F)F)ccc12)Cc1ccc2[nH]ccc2c1` [SJ000575171-1], for which, in test [1] (setting [4]), the half-maximal inhibitory concentration (IC50) was found to be 33.2 µM.

Take `Clc1ccc2c(NCCCNCc3ccc[nH]3)ccnc2c1` [SJ000575192-1]: the IC50 in test [1] (setting [4]) turned out to be 22.8 µM.

As to `O=C1c2ccccc2NC(c2ccc(F)cc2F)N1CCCN1CCOCC1` (stereo not shown) [SJ000795275-1], in test [1] (setting [3]), the IC50 is 67.8 µM.

For `O=C1c2ccccc2NC(c2ccc(F)c(F)c2)N1CCCN1CCOCC1` (stereo not shown) [SJ000803757-1], the IC50 in test [1] (setting [3]) came out at 58.4 µM.

Consider `CCCOc1ccc(C2Nc3ccccc3C(=O)N2CCCN2CCOCC2)cc1` (stereo not shown) [SJ000803758-1], for which, in test [1] (setting [3]), the IC50 worked out at 72.1 µM.

Consider `CCOc1ccc(C2Nc3ccccc3C(=O)N2CCCN2CCOCC2)cc1` (stereo not shown) [SJ000803759-1], for which the 50% inhibitory concentration (IC50) in test [1] (setting [3]) is 67.7 µM.

Regarding `COc1ccc(C2Nc3ccccc3C(=O)N2CCCN2CCOCC2)cc1OC(F)F` (stereo not shown) [SJ000803760-1], the concentration for half-maximal inhibition (IC50) in test [1] (setting [3]) came out at 72.1 µM.

Turning to `Cc1cc(C)c(C2Nc3ccccc3C(=O)N2CCCN2CCOCC2)cc1C` (stereo not shown) [SJ000803761-1], the 50% inhibitory concentration (IC50) in test [1] (setting [3]) turned out to be 62.3 µM.

`CSc1ccc(C2Nc3ccccc3C(=O)N2CCCN2CCOCC2)cc1` (stereo not shown) [SJ000803762-1]: the half-inhibitory concentration (IC50) in test [1] (setting [3]) came to 71.3 µM.

As to `COc1ccc2cc(C3Nc4ccccc4C(=O)N3CCCN3CCOCC3)ccc2c1` (stereo not shown) [SJ000803763-1], the IC50 in test [1] (setting [3]) amounted to 67.4 µM.

As to `O=C1c2ccccc2NC(c2ccc(F)c(Br)c2)N1CCCN1CCOCC1` (stereo not shown) [SJ000803764-1], the IC50 in test [1] (setting [3]) turned out to be 68 µM.

`CN(C)c1ccc(C2Nc3ccccc3C(=O)N2CCCN2CCOCC2)cc1` (stereo not shown) [SJ000803767-1]: in test [1] (setting [3]), the IC50 was 71.1 µM.

As for `Cc1ccc(C2Nc3ccccc3C(=O)N2CCCN2CCOCC2)cc1` (stereo not shown) [SJ000803768-1], the IC50 in test [1] (setting [3]) was determined as 65.9 µM.

As for `CCCn1c(=O)c2nc(-c3ccccc3)[nH]c2n(CCC)c1=O` [SJ000832251-1], the IC50 in test [1] (setting [3]) turned out to be 73 µM.

With `C=CCn1c(=O)c2c(nc(-c3ccccc3)n2C)n(C)c1=O` [SJ000832270-1], in test [1] (setting [3]), the half-inhibitory concentration (IC50) amounted to 85.8 µM.

Take `Fc1ccc2c(NCCCNCc3ccc(OC(F)(F)F)cc3)ccnc2c1` [SJ000834150]: the IC50 in test [1] (setting [2]) is more than 67.3 µM.

For `CCc1ccc(OCc2ccccc2C(=O)Nc2ccc3nc(C)cc(N)c3c2)cc1` [SJ000855285], the IC50 in test [1] (setting [2]) came to 9.29 µM.

As a reminder, the IC50 is the point on the concentration scale where inhibition reaches its midpoint.
